According to paper PMC3914206:

Key:
Assay type in all cases: binding
Settings in all cases: Compound Concentration 10 µM
panel of 442 kinases [1] = molecular target: T1, panel of 442 kinases (Homo sapiens, UniProt P07333)
T1 construct: purchased KINOMEscan
From the text: (§1) We assessed the selectivity of members of this scaffold using the KINOMEscan methodology across a near comprehensive panel of 442 kinases [[18,27]].

panel of 442 kinases [2] = molecular target: T2, panel of 442 kinases (Homo sapiens, UniProt P21860)
T2 construct: purchased KINOMEscan
T2 sequence (P21860 20-1342): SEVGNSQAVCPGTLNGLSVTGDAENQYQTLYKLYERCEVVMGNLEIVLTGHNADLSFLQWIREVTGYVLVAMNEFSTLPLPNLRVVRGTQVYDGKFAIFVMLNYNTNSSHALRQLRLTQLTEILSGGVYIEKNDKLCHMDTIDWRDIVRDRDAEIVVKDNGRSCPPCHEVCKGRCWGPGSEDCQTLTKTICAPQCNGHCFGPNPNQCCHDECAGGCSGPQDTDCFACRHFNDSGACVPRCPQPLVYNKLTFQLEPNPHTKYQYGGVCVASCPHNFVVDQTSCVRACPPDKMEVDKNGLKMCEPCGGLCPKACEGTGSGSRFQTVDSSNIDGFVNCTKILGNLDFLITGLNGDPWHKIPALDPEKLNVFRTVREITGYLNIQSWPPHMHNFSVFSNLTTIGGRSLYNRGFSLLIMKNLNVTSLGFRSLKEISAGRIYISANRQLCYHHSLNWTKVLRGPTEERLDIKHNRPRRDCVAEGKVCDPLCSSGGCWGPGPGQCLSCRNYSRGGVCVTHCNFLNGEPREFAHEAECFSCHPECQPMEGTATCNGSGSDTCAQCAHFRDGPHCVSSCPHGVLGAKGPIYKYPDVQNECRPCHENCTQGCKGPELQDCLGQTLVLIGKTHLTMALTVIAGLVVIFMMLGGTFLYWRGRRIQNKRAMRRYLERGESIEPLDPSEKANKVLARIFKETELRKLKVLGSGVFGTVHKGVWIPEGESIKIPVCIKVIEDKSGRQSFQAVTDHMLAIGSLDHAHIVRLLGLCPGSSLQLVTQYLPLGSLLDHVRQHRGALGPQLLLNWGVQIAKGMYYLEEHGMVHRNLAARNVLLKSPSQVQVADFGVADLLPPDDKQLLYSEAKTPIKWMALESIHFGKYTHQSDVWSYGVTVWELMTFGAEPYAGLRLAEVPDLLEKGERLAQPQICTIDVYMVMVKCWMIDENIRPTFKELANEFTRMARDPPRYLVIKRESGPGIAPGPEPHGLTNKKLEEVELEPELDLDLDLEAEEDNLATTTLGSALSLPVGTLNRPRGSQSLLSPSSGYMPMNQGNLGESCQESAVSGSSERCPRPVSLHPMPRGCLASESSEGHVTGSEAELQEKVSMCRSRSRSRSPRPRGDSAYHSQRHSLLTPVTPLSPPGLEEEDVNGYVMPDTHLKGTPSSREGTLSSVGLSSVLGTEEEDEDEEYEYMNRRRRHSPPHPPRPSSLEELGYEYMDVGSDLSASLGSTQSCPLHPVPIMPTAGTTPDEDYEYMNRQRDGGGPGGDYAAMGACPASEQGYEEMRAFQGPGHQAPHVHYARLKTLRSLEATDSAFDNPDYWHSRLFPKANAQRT
From the text: as §1

panel of 442 kinases [3] = molecular target: T3, panel of 442 kinases (Homo sapiens, UniProt P22455)
T3 construct: purchased KINOMEscan
T3 sequence (P22455 22-802): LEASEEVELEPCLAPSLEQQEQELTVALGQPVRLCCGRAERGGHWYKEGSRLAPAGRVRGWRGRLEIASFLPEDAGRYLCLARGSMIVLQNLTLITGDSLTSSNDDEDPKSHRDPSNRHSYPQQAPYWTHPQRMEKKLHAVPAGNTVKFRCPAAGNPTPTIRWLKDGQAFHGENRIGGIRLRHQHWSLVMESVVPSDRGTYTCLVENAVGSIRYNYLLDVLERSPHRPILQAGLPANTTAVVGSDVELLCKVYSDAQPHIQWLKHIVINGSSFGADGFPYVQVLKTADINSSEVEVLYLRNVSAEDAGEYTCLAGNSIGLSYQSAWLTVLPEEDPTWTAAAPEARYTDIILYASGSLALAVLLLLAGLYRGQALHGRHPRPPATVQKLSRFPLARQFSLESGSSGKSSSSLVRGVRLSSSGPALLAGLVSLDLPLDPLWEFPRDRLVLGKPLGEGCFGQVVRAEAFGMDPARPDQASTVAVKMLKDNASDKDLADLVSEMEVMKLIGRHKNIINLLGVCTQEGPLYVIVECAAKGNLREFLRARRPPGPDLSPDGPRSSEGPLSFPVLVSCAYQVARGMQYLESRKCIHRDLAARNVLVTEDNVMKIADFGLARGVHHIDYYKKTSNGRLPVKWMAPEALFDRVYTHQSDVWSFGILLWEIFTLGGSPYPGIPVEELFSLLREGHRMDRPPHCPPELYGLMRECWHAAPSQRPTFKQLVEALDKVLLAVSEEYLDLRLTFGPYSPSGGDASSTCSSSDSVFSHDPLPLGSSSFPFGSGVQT
From the text: as §1

panel of 442 kinases [4] = molecular target: T4, panel of 442 kinases (Homo sapiens, UniProt P48736)
T4 construct: purchased KINOMEscan
T4 sequence (P48736 whole entry): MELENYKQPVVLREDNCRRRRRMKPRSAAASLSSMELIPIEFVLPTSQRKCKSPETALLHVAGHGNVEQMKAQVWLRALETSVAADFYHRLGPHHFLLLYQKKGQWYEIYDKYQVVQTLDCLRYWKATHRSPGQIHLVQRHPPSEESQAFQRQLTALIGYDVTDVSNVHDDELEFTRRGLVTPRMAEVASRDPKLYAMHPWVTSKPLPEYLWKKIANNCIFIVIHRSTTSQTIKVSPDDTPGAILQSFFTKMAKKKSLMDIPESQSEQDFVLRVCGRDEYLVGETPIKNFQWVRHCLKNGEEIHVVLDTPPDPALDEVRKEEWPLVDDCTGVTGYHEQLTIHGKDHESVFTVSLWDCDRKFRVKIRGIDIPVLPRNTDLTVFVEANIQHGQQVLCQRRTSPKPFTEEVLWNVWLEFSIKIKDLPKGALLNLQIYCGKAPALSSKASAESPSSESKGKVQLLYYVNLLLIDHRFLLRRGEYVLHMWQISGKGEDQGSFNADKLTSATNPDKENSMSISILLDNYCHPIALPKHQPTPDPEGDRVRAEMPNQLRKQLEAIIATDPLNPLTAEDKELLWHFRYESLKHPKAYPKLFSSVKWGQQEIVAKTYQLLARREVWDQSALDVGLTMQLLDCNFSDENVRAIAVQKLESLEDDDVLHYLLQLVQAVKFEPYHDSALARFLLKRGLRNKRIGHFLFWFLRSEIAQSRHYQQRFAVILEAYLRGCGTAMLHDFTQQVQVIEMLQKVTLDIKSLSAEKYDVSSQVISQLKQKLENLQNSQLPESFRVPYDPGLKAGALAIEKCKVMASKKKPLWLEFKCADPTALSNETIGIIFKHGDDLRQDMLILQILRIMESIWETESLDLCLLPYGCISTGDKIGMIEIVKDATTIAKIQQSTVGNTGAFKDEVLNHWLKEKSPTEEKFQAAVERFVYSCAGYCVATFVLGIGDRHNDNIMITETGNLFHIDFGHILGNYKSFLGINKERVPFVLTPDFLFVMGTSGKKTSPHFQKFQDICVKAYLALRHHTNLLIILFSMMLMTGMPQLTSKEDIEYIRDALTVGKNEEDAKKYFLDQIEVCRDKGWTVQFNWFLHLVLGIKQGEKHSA
From the text: as §1

T1 sequence (P07333 20-972): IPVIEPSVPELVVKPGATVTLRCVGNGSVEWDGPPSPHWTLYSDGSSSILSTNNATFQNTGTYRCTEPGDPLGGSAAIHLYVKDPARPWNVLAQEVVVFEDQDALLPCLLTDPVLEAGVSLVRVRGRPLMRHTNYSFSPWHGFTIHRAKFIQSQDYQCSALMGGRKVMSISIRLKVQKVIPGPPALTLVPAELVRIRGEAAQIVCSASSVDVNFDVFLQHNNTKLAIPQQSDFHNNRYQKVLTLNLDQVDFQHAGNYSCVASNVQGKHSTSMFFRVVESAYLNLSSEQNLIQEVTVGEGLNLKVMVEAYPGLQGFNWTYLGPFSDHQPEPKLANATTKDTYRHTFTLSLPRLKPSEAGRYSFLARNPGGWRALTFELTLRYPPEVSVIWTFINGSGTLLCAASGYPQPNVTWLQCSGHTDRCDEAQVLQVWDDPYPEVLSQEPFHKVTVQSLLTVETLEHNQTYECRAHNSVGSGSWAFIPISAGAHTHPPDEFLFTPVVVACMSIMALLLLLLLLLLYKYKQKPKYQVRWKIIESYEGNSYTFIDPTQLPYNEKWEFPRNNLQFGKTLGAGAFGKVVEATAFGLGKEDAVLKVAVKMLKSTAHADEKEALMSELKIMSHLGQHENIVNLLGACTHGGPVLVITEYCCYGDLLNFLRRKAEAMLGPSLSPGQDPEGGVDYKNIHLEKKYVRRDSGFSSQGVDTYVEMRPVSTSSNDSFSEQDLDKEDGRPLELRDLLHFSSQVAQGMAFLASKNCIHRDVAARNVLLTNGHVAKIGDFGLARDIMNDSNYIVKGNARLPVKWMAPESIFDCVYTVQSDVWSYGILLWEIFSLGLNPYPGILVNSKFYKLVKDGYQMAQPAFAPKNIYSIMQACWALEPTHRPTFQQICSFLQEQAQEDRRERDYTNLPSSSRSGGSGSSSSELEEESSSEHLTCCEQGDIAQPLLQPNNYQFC

| SMILES | KINOMEscan: CSF1R (panel of 442 kinases [1]) | KINOMEscan: ERBB3 (panel of 442 kinases [2]) | KINOMEscan: FGFR4 (panel of 442 kinases [3]) | KINOMEscan: PIK3CG (panel of 442 kinases [4]) |
| --- | --- | --- | --- | --- |
| COc1cc(C(=O)N2CCC(N3CCN(C)CC3)CC2)ccc1Nc1ncc2c(n1)N(C)c1ccccc1C(=O)N2C [15 (LRRK2-IN-1)] | 98 | 100 | 28 | 15 |
| COc1cc(C(=O)N2CCC(N3CCN(C)CC3)CC2)ccc1Nc1ncc2c(n1)N1CCc3cccc(c31)C(=O)N2C [Compound 24] | 57 | – | 23 | 30 |
| COc1cc(C(=O)N2CCC(N3CCN(C)CC3)CC2)ccc1Nc1ncc2c(n1)N(C1CCCC1)c1ccccc1C(=O)N2C [Compound 25, 11-cyclopentyl-2-((2-methoxy-4-(4-(4-methylpiperazin-1-yl)piperidine-1-carbonyl)phenyl)amino)-5-methyl-5H-benzo[e]pyrimido[5,4-b][1,4]diazepin-6(11H)-one] | 56 | 100 | 75 | 80 |
| CCOc1cc(C(=O)N2CCC(N3CCN(C)CC3)CC2)ccc1Nc1ncc2c(n1)N(C1CCCC1)c1ccccc1C(=O)N2C [Compound 26] | 100 | 100 | 100 | 82 |
